In patent publication US7955596B2 (priority 2003, dated 2011):
Read-outs that look alike come from different tables or passages of the source.

Legend:
[1] = tested on: B. anthracis protective antigen (PA); format: cell-based
[2] = tested on: B. subtilis; details: cited from earlier work
[3] = tested on: B. anthracis strain RBAF140; format: cell-based
[4] = tested on: B. anthracis strain 34F2; format: cell-based
[5] = tested on: AI-1 and AI-2-mediated quorum-sensing pathways; details: cited from earlier work
[6] = tested on: AI-2-mediated quorum-sensing; details: cited from earlier work
[7] = tested on: B. anthracis strain 34F2; format: cell-based; remark: listed apart in the source
[8] = tested on: AI-2-mediated quorum-sensing; details: cited from earlier work; remark: listed apart in the source
[9] = tested on: pag-lacZ (pagA protective antigen gene transcription); format: cell-based, B. anthracis

SMILES	PA expression (Western blot) [1]	Biofilm formation [2]	Swarming [2]	Growth of RBAF140 (OD600) [3]	Bacterial growth (OD600) with increasing concentration, log phase cells [4]	AI-1 and AI-2-mediated quorum-sensing pathways [5]	AI-2-mediated quorum-sensing [6]	B. anthracis growth (OD600) [7]	Bacterial growth (OD600) [7]	Bacterial growth (OD600) with increasing concentration [7]	AI-2-mediated quorum-sensing [8]	Expression of pag-lacZ (β-gal activity) [9]	Inhibitory effect compared among furanones 1, 2 and 4 [7]
CCCCC1=C(Br)/C(=C/Br)OC1=O [furanone 1, (5Z)-4-bromo-5-(bromomethylene)-3-butyl-2(5H)-furanone]	significant reduction	inhibit	inhibit	significant inhibition of growth	increasingly retarded	directly inhibit	inhibit	dramatically inhibited	completely inhibited	increasingly retarded	inhibit	significantly reduced	–
CCCCC1=CC(=C(Br)Br)OC1=O [furanone 2, 3-butyl-5-(dibromomethylene)-2-(5H)-furanone]	–	–	–	–	–	–	–	–	–	–	–	–	least
O=C1C=C(Br)/C(=C/Br)O1 [furanone 4, 4-bromo-5-(bromomethylene)-2(5H)-furanone]	–	–	–	–	–	–	–	–	–	–	–	–	most potent inhibitory effect
